Values of other authors, collected in patent publication US5348748A, “Pulsatile once-a-day delivery systems for minocycline” (American Cyanamid Company, priority 1993, dated 1994).

Columns and labels:
[1] = system: wide range of gram-negative and gram-positive bacteria; conditions: PDR 43rd Ed.
[2] = taken with food

For `CN(C)c1ccc(O)c2c1C[C@H]1C[C@H]3[C@H](N(C)C)C(=O)C(C(N)=O)=C(O)[C@@]3(O)C(=O)C1=C2O` [minocycline, 7-dimethylamino-6-deoxy-6-demethyltetracycline], the “absorption in the lower gastrointestinal tract in words” value is given as “reduced absorption in the lower gastrointestinal tract”, the “susceptibility of organisms in words” value [1] is given as “susceptible” and the half life [2] is given as 14 to 16 h.
